Data set [1] relates to LNCaP tumor xenograft-bearing CB17-SCID mice. Briefly: Biodistribution in LNCaP tumor xenograft-bearing CB17-SCID mice.
In a further data set the target is PSMA (Homo sapiens, UniProt Q04609). Briefly: Affinity determinations (IC50), competitive binding assay with ([^125I]I-BA)KuE on LNCaP cells. Particulars: ([^125I]I-BA)KuE 0.2 nM, HBSS (1% BSA), 4° C., 1 h, cold ^natGa/^natLu complex.
For data set [2] the following is noted: Wangler et al., Bioconjug Chem. 2010; cited from earlier work.
For data set [3] the following is noted: ^177Lu-labeled compound, n = 6.

Chain of PSMA (Q04609 whole entry): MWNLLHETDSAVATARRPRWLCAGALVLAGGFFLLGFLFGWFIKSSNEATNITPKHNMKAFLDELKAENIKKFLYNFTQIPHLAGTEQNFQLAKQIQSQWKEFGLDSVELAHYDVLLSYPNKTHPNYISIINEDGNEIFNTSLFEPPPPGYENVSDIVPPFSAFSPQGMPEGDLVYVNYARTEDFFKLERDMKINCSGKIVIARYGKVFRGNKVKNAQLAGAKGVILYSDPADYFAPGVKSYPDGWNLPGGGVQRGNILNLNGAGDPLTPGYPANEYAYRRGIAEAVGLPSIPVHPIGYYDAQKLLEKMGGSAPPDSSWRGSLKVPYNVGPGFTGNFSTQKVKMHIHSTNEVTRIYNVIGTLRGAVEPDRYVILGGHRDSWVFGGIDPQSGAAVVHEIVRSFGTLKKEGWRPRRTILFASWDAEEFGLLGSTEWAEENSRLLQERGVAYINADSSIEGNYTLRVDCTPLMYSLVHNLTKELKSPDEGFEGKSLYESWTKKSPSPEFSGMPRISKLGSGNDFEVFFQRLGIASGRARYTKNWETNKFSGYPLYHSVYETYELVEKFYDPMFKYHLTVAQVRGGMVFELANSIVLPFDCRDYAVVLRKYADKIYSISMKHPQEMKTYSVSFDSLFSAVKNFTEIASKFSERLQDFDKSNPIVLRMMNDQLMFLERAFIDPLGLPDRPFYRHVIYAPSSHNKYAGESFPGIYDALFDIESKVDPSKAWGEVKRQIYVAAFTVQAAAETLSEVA

For the compound `CCCCCC[C@H](NC(=O)CC[C@H](NC(=O)N[C@@H](CCC(=O)N[C@H](CCCNC(=O)CCC(=O)NCCCC[C@@H](NC(=O)[C@@H](CNC(=O)c1ccc([Si](F)(C(C)(C)C)C(C)(C)C)cc1)NC(=O)CN1CCN(CC(=O)[O-])CCN(CC(=O)[O-])CCN(CC(=O)[O-])CC1)C(=O)O)C(=O)O)C(=O)O)C(=O)O)C(=O)O.[177Lu+3]` [[^177Lu]Lu-6, [^177Lu]Lu-Proinhibitor II], in data set [1] (24 h p.i.), the “Biodistribution Adrenals” value stood at 0.04 ± 0.00 % ID/g, the “Biodistribution Blood” value stood at 0.00 ± 0.00 % ID/g, the “Biodistribution Bone” value stood at 0.02 ± 0.01 % ID/g and the “Biodistribution Heart” value is 0.03 ± 0.01 % ID/g. In data set [1] (24 h p.i.), the “Biodistribution Intestine” value came to 0.18 ± 0.06 % ID/g, the “Biodistribution Kidneys” value was 2.36 ± 0.39 % ID/g, the “Biodistribution Liver” value amounted to 0.14 ± 0.02 % ID/g and the “Biodistribution Lung” value stood at 0.10 ± 0.08 % ID/g. For the same compound, in data set [1] (24 h p.i.), the “Biodistribution Muscle” value was determined as 0.02 ± 0.00 % ID/g, the “Biodistribution Pancreas” value turned out to be 0.03 ± 0.01 % ID/g, the “Biodistribution Parotid gland” value is reported as 0.09 ± 0.03 % ID/g and the “Biodistribution Spleen” value worked out at 0.11 ± 0.03 % ID/g. In data set [1] (24 h p.i.), the “Biodistribution Stomach” value was 0.05 ± 0.01 % ID/g, the “Biodistribution Submandibular gland” value came out at 0.07 ± 0.01 % ID/g and the “Biodistribution Tumor” value amounted to 0.33±0.11 % ID/g.
Consider `CSCC[C@H](NC(=O)CC[C@H](NC(=O)N[C@@H](CCC(=O)N[C@H](CCCNC(=O)CCC(=O)NCCCC[C@@H](NC(=O)[C@@H](CNC(=O)c1ccc([Si](F)(C(C)(C)C)C(C)(C)C)cc1)NC(=O)CN1CCN(CC(=O)[O-])CCN(CC(=O)[O-])CCN(CC(=O)[O-])CC1)C(=O)O)C(=O)O)C(=O)O)C(=O)O)C(=O)O.[177Lu+3]` [[^177Lu]Lu-5, [^177Lu]Lu-Proinhibitor I], for which, in data set [1] (24 h p.i.), the “Biodistribution Adrenals” value came out at 0.00 ± 0.00 % ID/g, the “Biodistribution Blood” value came to 0.00 ± 0.00 % ID/g, the “Biodistribution Bone” value amounted to 0.00 ± 0.00 % ID/g and the “Biodistribution Heart” value turned out to be 0.01 ± 0.00 % ID/g. Moreover, in data set [1] (24 h p.i.), the “Biodistribution Intestine” value amounted to 0.55 ± 0.04 % ID/g, the “Biodistribution Kidneys” value amounted to 0.48 ± 0.02 % ID/g, the “Biodistribution Liver” value is 0.05 ± 0.00 % ID/g and the “Biodistribution Lung” value is given as 0.33 ± 0.30 % ID/g. Also, in data set [1] (24 h p.i.), the “Biodistribution Muscle” value was 0.00 ± 0.00 % ID/g, the “Biodistribution Pancreas” value came out at 0.01 ± 0.00 % ID/g, the “Biodistribution Parotid gland” value was 0.02 ± 0.00 % ID/g and the “Biodistribution Spleen” value was 0.05 ± 0.01 % ID/g. Also, in data set [1] (24 h p.i.), the “Biodistribution Stomach” value amounted to 0.14 ± 0.07 % ID/g, the “Biodistribution Submandibular gland” value was 0.02 ± 0.01 % ID/g and the “Biodistribution Tumor” value was 0.09±0.02 % ID/g.
Usually IC50 stands for the concentration at which inhibition is half-maximal. The low end stands for greater potency in that assay, the high end for weaker potency in that assay. Regarding `CC(C)(C)[Si](F)(c1ccc(C(=O)NCC(NC(=O)CN2CCN(CC(=O)[O-])CCN(CC(=O)[O-])CCN(CC(=O)[O-])CC2)C(=O)NC(CCCCNC(=O)CCC(=O)NCCCC(NC(=O)CCC(NC(=O)NC(CCC(=O)O)C(=O)O)C(=O)O)C(=O)O)C(=O)O)cc1)C(C)(C)C.[Lu+3]` (centres unmarked) [^natLu-1, ^natLu-PSMA-10, reference compound], the IC50 on PSMA worked out at 7.2 ± 3.7 nM.
Same read-out and setting: under `CC(C)(C)[Si](F)(c1ccc(C(=O)NCC(NC(=O)CN2CCN(CC(=O)[O-])CCN(CC(=O)[O-])CCN(CC(=O)[O-])CC2)C(=O)NC(CCCCNC(=O)CCC(=O)NCCCC(NC(=O)CCC(NC(=O)NC(Cc2ccco2)C(=O)O)C(=O)O)C(=O)O)C(=O)O)cc1)C(C)(C)C.[Lu+3]` (centres unmarked) [^natLu-9, ^natLu-Furyl Derivative 9] stands over 440 nM.
Take “SIFA-Asn(AcNH-p-Glc)-PEG-Tyr^3-octreotate”: the “log P(ow)” value in data set [2] was 0.96.
In turn, `CCCCC[C@H](NC(=O)N[C@@H](CCC(=O)N[C@H](CCCNC(=O)CCC(=O)NCCCC[C@@H](NC(=O)[C@@H](CNC(=O)c1ccc([Si](F)(C(C)(C)C)C(C)(C)C)cc1)NC(=O)CN1CCN(CC(=O)[O-])CCN(CC(=O)[O-])CCN(CC(=O)[O-])CC1)C(=O)O)C(=O)O)C(=O)O)C(=O)O.[Lu+3]` [^natLu-8, ^natLu-2-Aminoheptanoic Acid Derivative 8] returned an IC50 at PSMA of over 2000 nM.
In the case of `CCCCCC[C@H](NC(=O)[C@H](CCC(=O)O)NC(=O)N[C@@H](CCC(=O)N[C@H](CCCNC(=O)CCC(=O)NCCCC[C@@H](NC(=O)[C@@H](CNC(=O)c1ccc([Si](F)(C(C)(C)C)C(C)(C)C)cc1)NC(=O)CN1CCN(CC(=O)[O-])CCN(CC(=O)[O-])CCN(CC(=O)[O-])CC1)C(=O)O)C(=O)O)C(=O)O)C(=O)O.[177Lu+3]` [[^177Lu]Lu-7, [^177Lu]Lu-Proinhibitor III], in data set [1] (24 h p.i.), the “Biodistribution Adrenals” value is given as 0.03 ± 0.01 % ID/g, the “Biodistribution Blood” value is reported as 0.01 ± 0.00 % ID/g, the “Biodistribution Bone” value came to 0.04 ± 0.01 % ID/g and the “Biodistribution Heart” value was determined as 0.03 ± 0.01 % ID/g. Besides, in data set [1] (24 h p.i.), the “Biodistribution Intestine” value was found to be 0.10 ± 0.05 % ID/g, the “Biodistribution Kidneys” value is reported as 2.04 ± 0.75 % ID/g, the “Biodistribution Liver” value is reported as 0.17 ± 0.05 % ID/g and the “Biodistribution Lung” value is reported as 0.04 ± 0.01 % ID/g. Besides, in data set [1] (24 h p.i.), the “Biodistribution Muscle” value turned out to be 0.01 ± 0.00 % ID/g, the “Biodistribution Pancreas” value worked out at 0.02 ± 0.00 % ID/g, the “Biodistribution Parotid gland” value is 0.06 ± 0.01 % ID/g and the “Biodistribution Spleen” value amounted to 0.08 ± 0.02 % ID/g. In data set [1] (24 h p.i.), the “Biodistribution Stomach” value is on record as 0.04 ± 0.01 % ID/g, the “Biodistribution Submandibular gland” value is 0.05 ± 0.02 % ID/g and the “Biodistribution Tumor” value is 0.14 ± 0.05 % ID/g.
What is called log D is lipophilicity at a set pH, counting ionised and neutral species. Read a low log D as lower lipophilicity. For the compound `CC(C)(C)[Si](F)(c1ccc(C(=O)NC[C@@H](NC(=O)CN2CCN(CC(=O)[O-])CCN(CC(=O)[O-])CCN(CC(=O)[O-])CC2)C(=O)N[C@H](CCCCNC(=O)CCC(=O)NCCC[C@@H](NC(=O)CC[C@H](NC(=O)O[C@@H](CCC(=O)O)C(=O)O)C(=O)O)C(=O)O)C(=O)O)cc1)C(C)(C)C.[177Lu+3]` [[^177Lu]Lu-3, [^177Lu]Lu-Carbamate I], in data set [1] (1 h p.i.), the “Biodistribution Adrenals” value is reported as 1.46 ± 0.70 % ID/g, the “Biodistribution Blood” value amounted to 0.97 ± 0.18 % ID/g, the “Biodistribution Bone” value is 0.18 ± 0.02 % ID/g and the “Biodistribution Heart” value stood at 0.36 ± 0.04 % ID/g. Also, in data set [1] (1 h p.i.), the “Biodistribution Intestine” value is 0.36 ± 0.17 % ID/g, the “Biodistribution Kidneys” value was 61.8±25.9 % ID/g, the “Biodistribution Liver” value is reported as 0.87 ± 0.28 % ID/g and the “Biodistribution Lung” value was determined as 2.88 ± 2.96 % ID/g. In data set [1] (1 h p.i.), the “Biodistribution Muscle” value was 0.13 ± 0.04 % ID/g, the “Biodistribution Pancreas” value is 0.25 ± 0.06 % ID/g, the “Biodistribution Parotid gland” value was 0.62 ± 0.20 % ID/g and the “Biodistribution Spleen” value turned out to be 2.51 ± 0.95 % ID/g. For the same compound, in data set [1] (1 h p.i.), the “Biodistribution Stomach” value is 0.30 ± 0.09 % ID/g, the “Biodistribution Submandibular gland” value is 0.37 ± 0.08 % ID/g, the “Biodistribution Tumor” value amounted to 5.31±0.94 % ID/g and the “Ratio Tumor-to-blood” value was determined as 5.57 ± 1.18. In data set [1] (1 h p.i.), the “Ratio Tumor-to-kidney” value came out at 0.09 ± 0.03, the “Ratio Tumor-to-liver” value is given as 6.61 ± 2.19, the “Ratio Tumor-to-muscle” value is 44.1 ± 9.0 and the “Ratio Tumor-to-parotid gland” value was 9.09 ± 3.13. In addition, the “Ratio Tumor-to-submandibular gland” value in data set [1] (1 h p.i.) is 14.7 ± 3.5. In data set [1] (1 h p.i. vs 24 h p.i.), the “tumor-to-submandibularis and -parotidea ratios at 1 h p.i. compared to respective values at 24 h p.i.” value is recorded as “two-fold lower”. Also, in data set [1] (24 h p.i.), the “Biodistribution Adrenals” value was 0.04 ± 0.01 % ID/g, the “Biodistribution Blood” value came to 0.00 ± 0.00 % ID/g, the “Biodistribution Bone” value came out at 0.02 ± 0.01 % ID/g and the “Biodistribution Heart” value is 0.02 ± 0.01 % ID/g. For the same compound, in data set [1] (24 h p.i.), the “Biodistribution Intestine” value was determined as 0.12 ± 0.06 % ID/g, the “Biodistribution Kidneys” value amounted to 0.31 ± 0.05 % ID/g, the “Biodistribution Liver” value is listed as 0.13 ± 0.05 % ID/g and the “Biodistribution Lung” value stood at 0.03 ± 0.01 % ID/g. For the same compound, in data set [1] (24 h p.i.), the “Biodistribution Muscle” value is reported as 0.01 ± 0.01 % ID/g, the “Biodistribution Pancreas” value came to 0.02 ± 0.01 % ID/g, the “Biodistribution Parotid gland” value was determined as 0.04 ± 0.02 % ID/g and the “Biodistribution Spleen” value is listed as 0.09 ± 0.01 % ID/g. In data set [1] (24 h p.i.), the “Biodistribution Stomach” value was found to be 0.06 ± 0.04 % ID/g, the “Biodistribution Submandibular gland” value is given as 0.03 ± 0.01 % ID/g, the “Biodistribution Tumor” value came to 1.20 ± 0.55 % ID/g and the “Ratio Tumor-to-blood” value is on record as 947 ± 652. In addition, in data set [1] (24 h p.i.), the “Ratio Tumor-to-kidney” value was 3.80 ± 1.36, the “Ratio Tumor-to-liver” value is reported as 8.94 ± 2.94, the “Ratio Tumor-to-muscle” value is 127 ± 92 and the “Ratio Tumor-to-parotid gland” value is recorded as 31.8 ± 9.3. The “Ratio Tumor-to-submandibular gland” value in data set [1] (24 h p.i.) came out at 34.5 ± 9.2. Further, the “log D” value in data set [3] is given as −3.40±0.45.
`CC(C)(C)[Si](F)(c1ccc(C(=O)NCC(NC(=O)CN2CCN(CC(=O)[O-])CCN(CC(=O)[O-])CCN(CC(=O)[O-])CC2)C(=O)NC(CCCCNC(=O)CCC(=O)NCCCC(NC(=O)CCC(NC(=O)NC(CCc2nnn[nH]2)C(=O)O)C(=O)O)C(=O)O)C(=O)O)cc1)C(C)(C)C.[Lu+3]` (centres unmarked) [^natLu-11, ^natLu-Tetrazole Derivative 11] showed an IC50 at PSMA of 16.4 ± 3.8 nM.
Regarding `CSCC[C@H](NC(=O)CC[C@H](NC(=O)N[C@@H](CCC(=O)N[C@H](CCCNC(=O)CCC(=O)NCCCC[C@@H](NC(=O)[C@@H](CNC(=O)c1ccc([Si](F)(C(C)(C)C)C(C)(C)C)cc1)NC(=O)CN1CCN(CC(=O)O)CCN(CC(=O)O)CCN(CC(=O)O)CC1)C(=O)O)C(=O)O)C(=O)O)C(=O)O)C(=O)O` [Compound 5, Proinhibitor I], in data set [3], the “log D” value is reported as −2.89±0.18.
